From US5286648A, “A84575 antibiotics” (Eli Lilly and Company, priority 1991, dated 1994)
Converted amounts (≈) assume the structure as drawn. Like-named read-outs stand apart in the source and are kept apart here. Where a SMILES comes first, the peptide text is derived from it. Bridges are numbered along the chain shown (N, C = ends). [ ]: non-standard residue; d: D form. The star is where a group is joined. Ileψ(thiazoline)Cys = CC[C@H](C)[C@H](N)C1=N[C@H](C(=O)*)CS1; dOrn = NCCC[C@@H](N)C(=O)O

Key:
Staphylococcus aureus = assay: In vitro antibacterial activity (Table 5), MIC; format: cell-based
[1] = test system: Staphylococcus epidermidis; assay: In vitro antibacterial activity (Table 5), MIC; format: cell-based, S. epidermidis
Haemophilus influenzae = assay: In vitro antibacterial activity (Table 5), MIC; format: cell-based
Streptococcus D = assay: In vitro antibacterial activity (Table 5), MIC; format: cell-based
Streptococcus pneumoniae = assay: In vitro antibacterial activity (Table 5), MIC; format: cell-based, S. pneumoniae; conditions: strain PARK
Streptococcus A = assay: In vitro antibacterial activity (Table 5), MIC; format: cell-based; conditions: strain C203
culture A84575 [2] = assay: Resistance of culture A84575 to antibiotics (antibiotic sensitivity discs, ISP No. 2 agar); format: cell-based, Streptosporangium carneum; conditions: disc
Description: Resistance to antibiotics was measured by padding antibiotic sensitivity discs (Difco) onto the surface of seeded ISP No. 2 agar plates. Resistance was scored as (+) when no zone of inhibition was observed, and as (-) when a zone of inhibition was observed.

culture A84575 [3] = assay: as above; format: cell-based, Streptosporangium carneum; conditions: 50 μg/mL

Question: Which results are given for `CO/N=C(\C(=O)N[C@@H]1C(=O)N2C(C(=O)O)=C(COC(C)=O)CS[C@H]12)c1csc(N)n1` [Standard]?
Answer: MIC (Staphylococcus aureus): 16 µg/mL (≈ 35.1 µM); MIC (Staphylococcus aureus; strain U41, read-out: MIC): 4 µg/mL (≈ 8.78 µM); MIC (Staphylococcus aureus; strain X1.1, read-out: MIC): 2 µg/mL (≈ 4.39 µM); MIC (Staphylococcus aureus; strain X400, read-out: MIC): 128 µg/mL (≈ 281 µM); MIC ([1]; strain 222): 2 µg/mL (≈ 4.39 µM); MIC ([1]; strain 270): 8 µg/mL (≈ 17.6 µM); MIC (Haemophilus influenzae; Haemophilus influenzae, strain C.L., sensitive strain, read-out: MIC): 0.015 µg/mL (≈ 0.0329 µM); MIC (Haemophilus influenzae; strain 76, resistant strain): .015 µg/mL (≈ 0.0329 µM); MIC (Streptococcus D; strain 2041): 128 µg/mL (≈ 281 µM); MIC (Streptococcus D; strain X66): > 128 µg/mL; MIC (Streptococcus pneumoniae): 0.015 µg/mL (≈ 0.0329 µM); MIC (Streptococcus A): 0.015 µg/mL (≈ 0.0329 µM)

Question: `CC[C@H](C)[C@H](N)C1=N[C@H](C(=O)N[C@@H](CC(C)C)C(=O)N[C@H](CCC(=O)O)C(=O)N[C@H](C(=O)N[C@H]2CCCCNC(=O)[C@H](CC(N)=O)NC(=O)[C@@H](CC(=O)O)NC(=O)[C@H](Cc3cnc[nH]3)NC(=O)[C@@H](Cc3ccccc3)NC(=O)[C@H]([C@@H](C)CC)NC(=O)[C@@H](CCCN)NC2=O)[C@@H](C)CC)CS1` [bacitracin] ({Ileψ(thiazoline)Cys}-L[dE]IK[dOrn]I[dF]H[dD]N; lactam 4-C) was tested. Which Resistance to antibiotics (culture A84575 [2]; 10 units) did it give?
Answer: resistant

Question: For `CCC[C@@H]1C[C@@H](C(=O)N[C@@H]([C@H]2O[C@H](SC)[C@H](O)[C@@H](O)[C@H]2O)[C@@H](C)O)N(C)C1` [lincomycin], which Resistance to antibiotics (culture A84575 [2]; 2 μm) is on record?
Answer: resistant

Question: For `CO[C@H]1C[C@H](O[C@H]2[C@H](C)[C@@H](O[C@@H]3O[C@H](C)C[C@H](N(C)C)[C@H]3O)[C@@H](C)C[C@@]3(CO3)C(=O)[C@H](C)[C@@H](O)[C@@H](C)[C@@H](C)OC(=O)[C@@H]2C)O[C@@H](C)[C@@H]1O` [oleandomycin], which Resistance to antibiotics (culture A84575 [2]; 15 μm) is on record?
Answer: sensitive

Question: Which Resistance to antibiotics (culture A84575 [2]; 10 units) does the source give for `CC1(C)S[C@@H]2[C@H](NC(=O)Cc3ccccc3)C(=O)N2[C@H]1C(=O)O` [penicillin G] here?
Answer: resistant

Question: With `CO[C@H]1/C=C/O[C@@]2(C)Oc3c(C)c(O)c4c(O)c(c(/C=N/N5CCN(C)CC5)c(O)c4c3C2=O)NC(=O)/C(C)=C\C=C\[C@H](C)[C@H](O)[C@@H](C)[C@@H](O)[C@@H](C)[C@H](OC(C)=O)[C@@H]1C` [rifampin] as the compound, how does the Resistance to antibiotics (culture A84575 [2]; 5 μm) read?
Answer: sensitive

Question: For lysozyme, which Sensitivity to lysozyme (culture A84575 [3]) is on record?
Answer: sensitive
